Paper PMC6302903, “Protein and Chemical Determinants of BL-1249 Action and Selectivity for K2P Channels” (ACS Chemical Neuroscience, 2018)

How the values were obtained:
[1] = biological target: T1, K2P2.1(TREK-1) F172M (Mus musculus, UniProt P97438, F187M); test: TEVC of K2P2.1(TREK-1) mutant F172M; type: cell-based; conditions: Xenopus oocytes
T1 construct: expressed in transfected cells; host or cells: Xenopus laevis oocytes, mRNA injected
Description: (§1) To identify K2P2.1(TREK-1) M2 residues that might participate in the BL-1249 response, we mapped the residues that differ between K2P2.1(TREK-1) and K2P4.1(TRAAK) in the context of the K2P2.1(TREK-1) structure[6] (Figure 5B,C). Two K2P2.1(TREK-1) M2 residues stood out as candidates that could explain the reduction in BL-1249 response when the entire M2 helix was replaced with M2 from K2P4.1(TRAAK). One is at the M2/M4 interface and occurs between Phe172 and Arg297 via a π–cation interaction that would be lost when Phe172 is replaced with the equivalent K2P4.1(TRAAK) residue Met134 (Figure 5C, right inset). […] To assess the importance of these interactions in the context of BL-1249 response, we made the K2P2.1(TREK-1) mutants F172M and F185L and measured their responses to BL-1249 (Figure 5D). […]
(§2) Xenopus laevis oocytes were harvested in accordance with UCSF IACUC protocol AN129690 and digested in calcium-free ND-96 (96 mM NaCl, 2 mM KCl, 3.8 mM MgCl2) immediately following harvest, as previously described.[6],[10] […] Defolliculated stage V–VI oocytes were injected with 0.2–6.0 ng of mRNA in 50 nL, and currents were recorded 24–48 h after injection. mRNA was synthesized from plasmid DNA using mMessage mMachine Kit (T7 promoter, Ambion, Life Technologies) and purified using RNEasy Kit (Qiagen). […]

[2] = biological target: T2, K2P4.1(TRAAK) M134F (Mus musculus, UniProt O88454, M134F); test: TEVC of K2P4.1(TRAAK) mutant M134F; type: cell-based; conditions: Xenopus oocytes, saturation not reached, fit with upper boundary of 15 (I/I0)
T2 construct: expressed in transfected cells; host or cells: Xenopus laevis oocytes, mRNA injected
Description: as §1, §2

T2 sequence (O88454 whole entry M134F): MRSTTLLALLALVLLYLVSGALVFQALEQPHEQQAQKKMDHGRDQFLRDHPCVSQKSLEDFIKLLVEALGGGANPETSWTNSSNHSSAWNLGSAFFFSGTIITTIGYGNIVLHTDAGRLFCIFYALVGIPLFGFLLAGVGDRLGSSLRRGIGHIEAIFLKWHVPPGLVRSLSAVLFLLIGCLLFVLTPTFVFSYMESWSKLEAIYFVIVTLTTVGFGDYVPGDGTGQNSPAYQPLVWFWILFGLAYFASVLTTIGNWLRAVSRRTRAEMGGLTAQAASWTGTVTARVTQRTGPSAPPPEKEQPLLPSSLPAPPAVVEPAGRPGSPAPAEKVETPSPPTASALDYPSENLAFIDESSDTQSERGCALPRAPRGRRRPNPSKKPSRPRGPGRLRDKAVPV
T1 sequence (P97438 1-411 isoform P97438-2 F172M): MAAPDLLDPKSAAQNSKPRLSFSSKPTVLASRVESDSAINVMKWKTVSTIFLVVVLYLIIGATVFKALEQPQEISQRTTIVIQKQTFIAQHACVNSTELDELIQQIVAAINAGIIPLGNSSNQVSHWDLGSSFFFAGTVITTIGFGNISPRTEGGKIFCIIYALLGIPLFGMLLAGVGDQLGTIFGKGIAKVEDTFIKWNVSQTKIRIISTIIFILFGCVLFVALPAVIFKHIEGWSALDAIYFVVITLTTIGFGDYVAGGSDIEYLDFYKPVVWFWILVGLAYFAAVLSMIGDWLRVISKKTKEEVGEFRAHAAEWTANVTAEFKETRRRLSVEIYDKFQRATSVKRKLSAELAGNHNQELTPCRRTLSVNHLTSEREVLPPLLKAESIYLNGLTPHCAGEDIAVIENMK

EC50 [1]: 15 ± 2 µM
EC50 [2]: 58 ± 34 µM
Structure (SMILES): c1ccc(-c2nnn[nH]2)c(Nc2cccc3c2CCCC3)c1 [BL-1249, (5,6,7,8-tetrahydro-naphthalen-1-yl)-[2-(1H-tetrazol-5-yl)-phenyl]-amine]
